This is an account of results in patent US5593970A, “Heterocyclic anthracycline analogs” (priority 1994, dated 1997).

Where a name gives a salt, the structure may show the parent alone. Read-outs that look alike come from different tables or passages of the source.

Experiment in all cases: Microculture tetrazolium assay
Holding throughout (assay type): cell-based

The subject of one experiment is SKOV3. To be noted: Homo sapiens, SK-OV-3, SKOV3.
The next experiment relates to SKVLB. To be noted: for VLB/OV3: IC50 ratio SKVLB/SKOV3; for IC50: SKVLB.
For another experiment, the system named is T47D. The note with it: Homo sapiens.
The next experiment deals with LOX.
Another experiment deals with HT29. To be noted: Homo sapiens, HT-29, HT29.

What is called IC50 is the concentration needed to halve the response being measured. In the case of `C[C@@H]1O[C@@H](O[C@@H]2O[C@@H](C#N)CC3=C2C(=O)c2cc4ccccc4c(O)c2C3=O)C[C@H](NC(=O)C(F)(F)F)[C@@H]1O` [BCH-2008, (1'S,1S,3R)-3-(6-hydroxy-1-(2',3',6'-trideoxy-3'-trifluoroacetamido-4'-hydroxy-L-lyxohexopyranose)-5,12-dioxo-3,4,5,12-tetrahydroanthraceno-[2,3-c]pyran-3-yl)nitrile], the IC50 in the experiment with SKOV3 (read-out: IC50) turned out to be 0.332 µM; in the experiment on SKVLB (read-out: IC50) it was 2.18 µM; with T47D (read-out: IC50), 0.387 µM; with LOX (read-out: IC50) it was 0.154 µM; in the experiment on HT29 (read-out: IC50), 0.0625 µM. Moreover, in the experiment on SKVLB, the VLB/OV3 was 6.57.
In the case of `C[C@@H]1O[C@@H](O[C@H]2O[C@H](c3ccccc3)CC3=C2C(=O)c2cc4ccccc4c(O)c2C3=O)C[C@H](NC(=O)C(F)(F)F)[C@@H]1O` [BCH-2010, (1S, 1R, 3S)-3-(6-hydroxy-1-(2',3',6'-trideoxy-3'-trifluoroacetamido-4'-hydroxy-L-lyxohexopyranose)-5,12-dioxo-3,4,5,12-tetrahydroanthraceno-[2,3-c]pyran-3-yl)benzene], the IC50 with SKOV3 (read-out: IC50) worked out at 12.7 µM; in the experiment with SKVLB (read-out: IC50) it was 28.5 µM; in the experiment with T47D (read-out: IC50), 13.5 µM; in the experiment with LOX (read-out: IC50) it was 9.25 µM; with HT29 (read-out: IC50), 10.7 µM. Moreover, in the experiment with SKVLB, the VLB/OV3 was determined as 2.24.
For `C[C@@H]1O[C@@H](O[C@H]2O[C@H](c3ccccc3)CC3=C2C(=O)c2cc4ccccc4c(O)c2C3=O)C[C@H](N)[C@@H]1O` [BCH-2012, (1'S,1R,3S)-3-(6-hydroxy-1-(2',3',6'-trideoxy-3'-amino-4'-hydroxy-L-lyxohexopyranose)-5,12-dioxo-3,4,5,12-tetrahydroanthraceno-[2,3-c]pyran-3-yl)benzene hydrochloride], the IC50 is 2.06 µM with SKOV3 (read-out: IC50); 4.03 µM with SKVLB (read-out: IC50); 0.954 µM with T47D (read-out: IC50); 0.736 µM with LOX (read-out: IC50); 0.565 µM with HT29 (read-out: IC50). Further, the VLB/OV3 in the experiment with SKVLB is 1.96.
`CC[C@@H]1Cc2c(O)c3c(c(O)c2[C@@H](O[C@H]2C[C@H](N)[C@H](O)[C@H](C)O2)O1)C(=O)c1ccccc1C3=O` [BCH-2016, (1'S,1R, 3R)-3-ethyl-5,12-dihydroxy-1-(2',3',6'-trideoxy-3'-amino-L-lyxohexopyranose)-1,2,3,4-tetrahydro-(2-oxygen)-naphthacene-6,11-dione-hydrochloride]: the IC50 in the experiment on SKOV3 (read-out: IC50) was 0.0934 µM; with SKVLB (read-out: IC50) it was 0.67 µM; in the experiment on T47D (read-out: IC50), 0.345 µM; in the experiment on LOX (read-out: IC50), 0.0597 µM; in the experiment on HT29 (read-out: IC50), 0.13 µM. Moreover, in the experiment with SKVLB, the VLB/OV3 is on record as 7.17.
For `C[C@@H]1O[C@@H](O[C@H]2O[C@H](S(=O)(=O)c3ccccc3)CC3=C2C(=O)c2cc4ccccc4c(O)c2C3=O)C[C@H](NC(=O)C(F)(F)F)[C@@H]1O` [BCH-2025], the IC50 with SKOV3 turned out to be 1.97 µM; in the experiment with SKVLB (read-out: IC50), 6.2 µM; with T47D (read-out: IC50), 3.34 µM; in the experiment with LOX (read-out: IC50) it was 1.11 µM; in the experiment on HT29 (read-out: IC50), 0.644 µM. Further, the VLB/OV3 in the experiment with SKVLB came out at 3.15.
On to `CC(=O)C1CC2=C(C(=O)c3cc4ccccc4c(O)c3C2=O)C(OC[C@@H](O)CO)O1` (stereo partly shown) [BCH-2034], for which the IC50 in the experiment with SKOV3 (read-out: IC50) was found to be 2.95 µM; in the experiment on SKVLB, 7.49 µM; with T47D (read-out: IC50), 7.87 µM; in the experiment with LOX (read-out: IC50) it was 1.43 µM; in the experiment with HT29 (read-out: IC50) it was 2.05 µM. Moreover, the VLB/OV3 in the experiment with SKVLB amounted to 2.54.
For the compound `CC(=O)[C@H]1CC2=C(C(=O)c3cc4ccccc4c(O)c3C2=O)[C@H](O[C@H]2O[C@H](CO)[C@@H](O)[C@H](O)[C@H]2NC(=O)N(CCCl)N=O)O1` [BCH-2039], the IC50 is 13.5 µM in the experiment on SKOV3; 81.2 µM in the experiment on SKVLB; 12.6 µM in the experiment on T47D; 1.55 µM in the experiment on LOX; 4.43 µM in the experiment with HT29. In addition, the VLB/OV3 in the experiment with SKVLB worked out at 6.01.
`CC(C)[C@H]1Cc2c(O)c3c(c(O)c2[C@H](O[C@H]2C[C@H](N)[C@H](O)[C@H](C)O2)O1)C(=O)c1ccccc1C3=O` [BCH-2049, (1'S,1S,3R)-5,12-trihydroxy-3-isopropyl-1-(2',3',6'-trideoxy-3'-amino-L-lyxohexopyranose)-1,2,3,4-tetrahydro-(2-oxygen)-naphthacene-6,11-dione-hydrochloride]: the IC50 came out at 0.275 µM in the experiment with SKOV3 (read-out: IC50); 0.472 µM in the experiment on SKVLB (read-out: IC50); 0.263 µM in the experiment on T47D (read-out: IC50); 0.102 µM in the experiment on LOX (read-out: IC50); 0.0773 µM in the experiment on HT29 (read-out: IC50). In the experiment on SKVLB, the VLB/OV3 is reported as 1.72.
For `CC(C)[C@@H]1Cc2c(O)c3c(c(O)c2[C@@H](O[C@H]2C[C@H](N)[C@H](O)[C@H](C)O2)O1)C(=O)c1ccccc1C3=O` [BCH-2050, (1'S,1R,3S)-5,12-Dixydroxy-3-isopropy-1-(2',3',6'-trideoxy-3'-amino 'L-lyxohexopyranose)-1,2,3,4-tetrahydro-(2-oxygen)-naphtacene-6,11-dione-hydrochloride], the half-inhibitory concentration (IC50) was 0.0706 µM with SKOV3 (read-out: IC50); 0.0672 µM in the experiment on SKVLB (read-out: IC50); 0.412 µM with T47D (read-out: IC50); 0.0384 µM in the experiment on LOX (read-out: IC50); 0.304 µM with HT29 (read-out: IC50). Besides, the VLB/OV3 in the experiment with SKVLB was 0.95.
For the compound `C[C@@H]1O[C@@H](O[C@@H]2O[C@@H](COc3ccccc3)CC3=C2C(=O)c2cc4ccccc4c(O)c2C3=O)C[C@H](NC(=O)C(F)(F)F)[C@@H]1O` [BCH-2057, (1'S,1S,3R)-5,12-dioxo-6-hydroxy-3-phenyloxymethyl-1-(2',3',6'-trideoxy-3'-trifluoroacetamido-L-lyxohexopyranose)-3,4,5,12-tetrahydroanthraceno-[2,3-c]pyran], the IC50 in the experiment on SKOV3 (read-out: IC50) was determined as 1.03 µM; in the experiment with SKVLB (read-out: IC50) it was 5.16 µM; with T47D (read-out: IC50), 0.243 µM; in the experiment with LOX (read-out: IC50), 1.49 µM; in the experiment on HT29 (read-out: IC50), 2.69 µM. In addition, the VLB/OV3 in the experiment with SKVLB worked out at 5.01.
In the case of `CC(=O)[C@@H]1Cc2c(O)c3c(c(O)c2[C@@H](O[C@@H]2O[C@@H](C)[C@@H](O)[C@@H](NC(=O)C(F)(F)F)C2I)O1)C(=O)c1ccccc1C3=O` (stereo partly shown) [BCH-2063], the IC50 amounted to 0.447 µM in the experiment on SKOV3 (read-out: IC50); 1.94 µM in the experiment with SKVLB (read-out: IC50); 0.146 µM in the experiment with T47D (read-out: IC50); 0.314 µM with LOX (read-out: IC50); 2.66 µM with HT29 (read-out: IC50). In the experiment with SKVLB, the VLB/OV3 was determined as 4.34.
Consider `CC(=O)[C@H]1CC2=C(C(=O)c3cc4ccccc4c(O)c3C2=O)[C@H](O[C@@H]2O[C@@H](C)[C@@H](O)[C@@H](NC(=O)C(F)(F)F)C2I)O1` (stereo partly shown) [BCH-2064], for which the IC50 came out at 1.45 µM in the experiment on SKOV3 (read-out: IC50); 3.45 µM with SKVLB (read-out: IC50); 0.878 µM with T47D (read-out: IC50); 10.8 µM in the experiment on LOX (read-out: IC50); 0.44 µM with HT29 (read-out: IC50). Besides, the VLB/OV3 in the experiment on SKVLB is listed as 2.38.
For the compound `CC(=O)[C@@H]1Cc2c(O)c3c(c(O)c2[C@@H](O[C@@H]2O[C@@H](C)[C@@H](O)[C@@H](N)C2I)O1)C(=O)c1ccccc1C3=O` (stereo partly drawn) [BCH-2066, (1'S,1R,3S)-Methyl-(5,12-dihydroxy-1-[2',3',6'-trideoxy-3'-amino-4'hydroxy-2'-iodo-L-lyxohexopyranose]-6,11-dioxo-3,4,6,11-tetrahydroanthraceno-[2,3C]-pyran-3-yl) ketone hydrochloride], the IC50 with SKOV3 (read-out: IC50) stood at 0.0927 µM; in the experiment with SKVLB (read-out: IC50), 0.586 µM; with T47D (read-out: IC50), 0.501 µM; in the experiment on LOX (read-out: IC50) it was 0.105 µM; with HT29 (read-out: IC50), 0.534 µM. The VLB/OV3 in the experiment with SKVLB came out at 6.32.
On to `CC(=O)[C@@H]1CC2=C(C(=O)c3cc4ccccc4c(O)c3C2=O)[C@@H](O[C@H]2O[C@H](CO)[C@@H](O)[C@H](O)[C@H]2NC(=O)N(CCCl)N=O)O1` [BCH-2073, (1'R, 1R,3S)-3-Aceto-6-hydroxy-1-(2-deoxy-2-chloroethylnitrosoureido-D-glucopyranose)-5,12-dioxo-3,4,5,12-tetrahydro-1H-anthra[2,3-C]pyran], for which the IC50 with SKOV3 was determined as 5.14 µM; in the experiment on SKVLB it was 13.7 µM; with T47D it was 6.12 µM; with LOX, 0.807 µM; with HT29, 6.59 µM. For the same compound, the VLB/OV3 in the experiment with SKVLB is 2.67.
`CC(=NO)[C@H]1Cc2c(O)c3c(c(O)c2[C@H](O[C@H]2C[C@H](N)[C@H](O)[C@H](C)O2)O1)C(=O)c1ccccc1C3=O` [BCH-2074, (1'S, 1S,3R)-3-(Oximoethyl)-5,12-dihydroxy-1(2,3,6-trideoxy-3-amino-L-lyxohexolpyranose)-6,11-dioxo-3,4,6,11-tetrahydro-1H-anthra[2,3-C]pyran hydrochloride]: the IC50 in the experiment with SKOV3 (read-out: IC50) was 0.31 µM; with SKVLB (read-out: IC50), 14.1 µM; in the experiment with T47D (read-out: IC50), 0.693 µM; in the experiment on LOX (read-out: IC50) it was 0.148 µM; in the experiment on HT29 (read-out: IC50), 0.586 µM. The VLB/OV3 in the experiment with SKVLB is on record as 45.48.
With `CCC1COC(OC2CC(NC(=O)C(F)(F)F)C(O)C(C)O2)C2=C1C(=O)c1c(cc3ccccc3c1O)C2=O` [BCH-2080, (1'S,1S,4S)-5,12-Dioxo-4-ethyl-6-hydroxy-1-(2',3',6'-trideoxy-3'-trifluoroacetamido-L-lyxohexopyranose)-3,4,5,12-tetrahydroanthraceno-[2,3-c]-pyran], the IC50 stood at 2.4 µM in the experiment with SKOV3 (read-out: IC50); 4.7 µM with SKVLB (read-out: IC50); 3.6 µM in the experiment with T47D (read-out: IC50); 2.1 µM in the experiment on LOX (read-out: IC50); 3 µM in the experiment with HT29 (read-out: IC50).
As for `CCC1COC(OC2CC(N)C(O)C(C)O2)c2c(O)c3c(c(O)c21)C(=O)c1ccccc1C3=O` [BCH-2086, (1'S,1R,4R)-5,12-Dihydroxy-4-ethyl-1-(2',3',6'-trideoxy-3'-amino-L-lyxohexopyranose)-1,2,3,4-tetrahydro-(2-oxygen)-naphthacene-6,11-dione-hydrochloride], the IC50 with SKOV3 (read-out: IC50) worked out at 0.86 µM; in the experiment on SKVLB (read-out: IC50), 1.7 µM; in the experiment with T47D (read-out: IC50), 1.4 µM; in the experiment with LOX (read-out: IC50), 0.36 µM; in the experiment with HT29 (read-out: IC50), 0.64 µM.
